In the NIST ThermoML archive (doi:10.1016/j.tca.2017.12.026):
Values joined by “and” are separate entries in the source; they are usually repeats but may differ in a detail not shown here. Equal entries are not always repeated. Numbers after ± are expanded uncertainties.

Assays:
[1] = Crystal; DTA
[2] = Molar enthalpy of transition or fusion; conditions: Crystal; DSC

For OC[C@@H](O)[C@@H](O)[C@H](O)[C@H](O)CO [D-mannitol], the Normal melting temperature [1] was 165.73 ± 2 °C and 166.68 ± 2 °C and 165.74 ± 2 °C and the “Molar enthalpy of transition or fusion” value [2] was 12.9 kcal/mol and 12.4 kcal/mol and 12.5 kcal/mol.
